The record followed here is paper PMC9861858, “Stereoselective Synthesis and Antiproliferative Activities of Tetrafunctional Diterpene Steviol Derivatives” (International Journal of Molecular Sciences, 2023).

In general, kinetic solubility refers to solubility judged after dilution from a stock solution rather than from solid. Broadly, the melting point is the temperature of the solid-liquid transition.

Values after ≈ are worked out from the molar mass of the structure shown.

A short description of series [1]: Intestinal-specific parallel artificial membrane permeability assay (PAMPA-GI). The class given is in vitro ADME. The following applies: gradient pH system (pH donor 6.5 → pH acceptor 7.4) after 4 h, at 37 °C, mean ± S.E.M, n = 3; for Papp at 4 h, 500 µM: PAMPA, read-out: PAMPA-GI Pe. How it is done: (§1) Filtrates and calibration solutions (5–500 μ M) of the kinetic solubility study and starting donor and acceptor solutions of the PAMPA-GI study were investigated by HPLC-DAD-MS. LC-MS analysis was performed using a Waters 2795 HPLC with a Waters 2487 DAD detector coupled with a Micromass Quattro Ultima TMPt quadrupol mass spectrometer equipped with an ESI source. Measurements were performed on a Waters XSelect C18 (150 × 4.6 mm; 3.5 μm) column with a […] eluent flow rate and the temperature set at 40 °C. The composition of eluent A was MilliQ water with 0.1% formic acid, and that of eluent B was an acetonitrile and MilliQ water mixture (95:5, v/v), also with 0.1% formic acid. The following linear gradient program was used: 0–6 min, 10–100% B; this was held for 3 min, then from 9.01 min on, back to the starting composition of 10% B–90% A. The injection volume was 10 μL for each sample. Chromatographic profiles were registered at dual wavelength, 220 and 240 nm. The mass spectrometer was used in negative ion mode for samples 2, 3 and 4b, and in positive ion mode for other samples. The operating parameters of the MS were: Mass range of m/z 150–700. Nitrogen gas flow rate was 350 L/h, temperature of 350 °C and pressure of 6 bar. The quadrupol temperature was 120 °C, and the capillary voltage was 2.5 kV. Fragmentor’s voltage of 60 V.
(§2) Intestinal (GI) permeability was determined by using an intestinal-specific parallel artificial membrane permeability assay (PAMPA-GI [36]]). […] All solutions were filtered by MultiScreen HTS Vacuum Manifold (Merck Ltd., Budapest, Hungary) after the incubation period. The target concentration was 500 μM for every sample investigated. The intestinal-specific effective permeability of the samples was determined by PAMPA-GI. To prepare starting solutions for a 96-well donor plate, 15 μLs of the 10 mM DMSO stock solution of investigation compounds and 285 μL pH 6.5 phosphate buffer solution were mixed. These solutions were left in a shaking incubator (300 rpm) at 25 °C for 1 h. Meanwhile, a 96-well acceptor plate was filled with 300 μL of pH 7.4 PBS buffer solution containing 5% DMSO. The intestinal-specific artificial membrane was prepared the following way: the hydrophobic filter material of the donor plate was coated with a mixture of phosphatidylcholine/cholesterol = 2:1 (5 μL, 4 % (w/v) in dodecane). After that, all donor wells were filled with 150 μL of the starting donor solutions, and they were carefully placed on the acceptor plate and incubated at 37 °C for 4 h. After the end of the incubation period the donor and acceptor plates were separated carefully. A total of 150 μL of the donor, acceptor and the starting donor solutions were sampled and analysed with HPLC-DAD-MS. The effective permeability and membrane retention of drugs were calculated using the following equations: Pe=−2.303/A·(t−τss)·1/1+rv·lg[−rv+(1+rv/1−MR)·]CD(t)/CD(0) MR=1−CD(t)/CD(0)−VA·CA(t)/VD·CD(0) where Pe is the effective permeability coefficient (cm/s), A is the filter area (0.3 cm^2), VD and VA are the volumes in the donor (0.15 cm^3) and acceptor phase (0.3 cm^3), t is the incubation time (s), τSS is the time to reach steady-state (s), CD(t) is the concentration of the compound in the donor phase at time point t (mol/cm^3), CD(0) is the concentration of the compound in the donor phase at time point zero (mol/cm^3), rv is the aqueous compartment volume ratio (VD/VA), MR is the membrane retention factor.
On the technique in general: In PAMPA a lipid-coated filter parts donor from acceptor wells.

The test system of another series is SiHa cells. Nature of the series: MTT antiproliferative assay, SiHa. The class given is cell-based, human. The settings on record: Homo sapiens, SiHa, 72 h, values <20% considered negligible, read-out: Growth inhibition (%) ± SEM, SiHa. How it is done: (§3) The in vitro antiproliferative activities of the synthesised aminotriols 5–18 against a panel of different human cancer cell lines of gynecological origin, including cervical (SiHA and HeLa), breast (MCF7 and MDA-MB-231), ovary (A2780) cancers and NIH/3T3 healthy fibroblasts, were assayed by the MTT method. Cisplatin, a clinically applied anticancer agent was used as a reference compound, and the results are summarised in Figure 3 and Table S1 in the Supplementary Materials.
(§4) The growth-inhibitory effects of the presented terpenes were determined by a standard MTT [3-(4,5-dimethylthiazol2-yl)-2,5-diphenyltetrazolium bromide] assay against […] human cancer cell lines (cervical cancer HeLa and SiHa cell lines, breast cancer MCF-7 and MDA-MB-231 and ovarian cancer A2780). Murine embryonal fibroblast cells (NIH/3T3) were used to determine selectivity. All cell lines were purchased from the European Collection of Cell Cultures (Salisbury, UK). The cells were cultivated in Eagle’s minimal essential medium supplemented with 10% fetal bovine serum, 1% non-essential amino acids, and 1% Antibiotic-Antimycotic complex (penicillin, streptomycin, amphotericin B) at 37 °C in a humidified atmosphere containing 5% CO2. All media and supplements were purchased from Lonza Group Ltd. (Basel, Switzerland). Cancer cells were seeded into 96-well plates (5000 cells/well) after an overnight incubation, and the test compounds were added at two different concentrations (10 μM and 30 μM) and incubated for another 72 h under cell-culturing conditions. Finally, 20 μL of a 5 mg/mL MTT solution was added to each well, and the contents were incubated for a further 4 h. The medium was removed, and the precipitated formazan crystals were dissolved in DMSO by shaking at 37 °C for 60 min. The absorbance was measured at 545 nm by using a microplate reader (SPECTROStar Nano, BMG Labtech, Offenburg, Germany). Clinically utilised anticancer agent cisplatin (Ebewe GmbH, Unterach, Austria) was included as a reference molecule. Calculations were performed using the GraphPad Prism 9 software (GraphPad Software Inc., San Diego, CA, USA).
A general note: Tetrazolium dyes change colour on reduction, which living cells bring about.

The next series deals with HeLa cells. Nature of the series: MTT antiproliferative assay, HeLa. The settings on record: Homo sapiens, HeLa, 72 h, values <20% considered negligible, read-out: Growth inhibition (%) ± SEM, HeLa. The class given is cell-based, human. How it is done: as §3, §4
The nature of series [2]: Kinetic aqueous solubility. The class given is physicochemical. The settings on record: phosphate buffered saline with 5% DMSO, aqueous with cosolvent or surfactant or cyclodextrin, kinetic from dmso stock; after 2 h, at 37 °C in PBS, pH 7.4, 5% DMSO; target concentration 500 μM; mean ± S.E.M, n = 3. How it is done: as §1, §2
For another series, the system named is MCF-7 cells. As to the kind of experiment: MTT antiproliferative assay, MCF-7. The class given is cell-based, human. The settings on record: for inhibition at 10 µM / inhibition at 30 µM: Homo sapiens, 72 h, values <20% considered negligible, read-out: Growth inhibition (%) ± SEM, MCF-7; for inhibition at 10 µM: MCF7, 10 μM; for inhibition at 30 µM: MCF7, 30 μM. How it is done: as §3, §4

For a further series, the system named is NIH/3T3 fibroblasts. Nature of the series: MTT assay on fibroblasts (selectivity). The class given is cell-based, murine. The settings on record: Mus musculus, 72 h, values <20% considered negligible, read-out: Growth inhibition (%) ± SEM, NIH/3T3; for inhibition at 10 µM: NIH3T3, 10 μM; for inhibition at 30 µM: NIH3T3, 30 μM. How it is done: as §3, §4
The subject of another series is A2780 cells. Nature of the series: MTT antiproliferative assay, A2780. The class given is cell-based, human. The following applies: for inhibition at 10 µM / inhibition at 30 µM: Homo sapiens, 72 h, values <20% considered negligible, read-out: Growth inhibition (%) ± SEM, A2780; for inhibition at 10 µM: A2780, 10 μM; for inhibition at 30 µM: A2780, 30 μM. How it is done: as §3, §4

A further series relates to MDA-MB-231 cells. Nature of the series: MTT antiproliferative assay, MDA-MB-231. The settings on record: for inhibition at 10 µM / inhibition at 30 µM: Homo sapiens, 72 h, values <20% considered negligible, read-out: Growth inhibition (%) ± SEM, MDA-MB-231; for inhibition at 10 µM: MDA-MB-231, 10 μM; for inhibition at 30 µM: MDA-MB-231, 30 μM. The class given is cell-based, human. How it is done:
as §3, §4

The compound `COC(=O)[C@]1(C)CCC[C@@]2(C)C3CC[C@]4(O)C[C@@]3(CCC21)[C@@H](O)[C@]4(O)CN[C@@H](C)c1ccccc1` (stereo partly drawn) [Compound 8, (4R,6aR,7R,8R,9S,11bS)-Methyl 7,8,9-Trihydroxy-4,11b-dimethyl-8-((((S)-1-phenylethyl)amino)methyl)tetradecahydro-6a,9-methanocyclohepta[a]naphthalene-4-carboxylate] came in with a melting point of 157 to 161 °C. Further, in series [1], the Papp at 4 h, 500 µM stood at 0.58 ± 0.01 ×10⁻⁶ cm/s and the “PAMPA-GI MR (membrane retention)” value came to 42.6 ± 3.9%. In the series with SiHa cells, the inhibition at 10 µM was less than 20% and the inhibition at 30 µM is 95.09 ± 0.69%. In addition, in the series on HeLa cells, the inhibition at 10 µM is less than 20% and the inhibition at 30 µM is 96.19 ± 0.25%. The kinetic solubility at 2 h in series [2] is 131 ± 2.2 µM (≈ 63.8 µg/mL). In addition, in the series with MCF-7 cells (10 and 30 μM), the “Antiproliferative effect / selectivity on MCF-7, in words” value is given as “slightly weaker action”. Moreover, in the series with MCF-7 cells, the inhibition at 10 µM is 74 ± 2.14% and the inhibition at 30 µM is 96.04 ± 0.32%. Further, in the series with NIH/3T3 fibroblasts, the inhibition at 10 µM stood at 58.8 ± 1.41% and the inhibition at 30 µM amounted to 103.2 ± 0.33%. Also, in the series with A2780 cells (10 and 30 μM), the “Antiproliferative effect on A2780, in words” value is listed as “slightly weaker action”. Besides, in the series on A2780 cells, the inhibition at 10 µM came out at 59.9 ± 3.03% and the inhibition at 30 µM stood at 97.45 ± 0.36%. Besides, in the series on MDA-MB-231 cells (10 and 30 μM), the “Antiproliferative effect / selectivity on MDA-MB-231, in words” value was “noteworthy selectivity”. For the same compound, in the series with MDA-MB-231 cells, the inhibition at 10 µM worked out at 84.3 ± 2.78% and the inhibition at 30 µM was determined as 95.62 ± 0.92%.

Compound `COC(=O)[C@]1(C)CCC[C@@]2(C)[C@@H]3CCC4(O)C[C@@]3(CC[C@@H]21)[C@@H](O)[C@]4(O)CN[C@H](C)c1ccc(F)cc1` [Compound 11, (4R,4aS,6aR,7R,8R,11aS,11bS)-Methyl 8-((((R)-1-(4-Fluorophenyl)ethyl)amino)methyl)-7,8,9-trihydroxy-4,11b-dimethyltetradecahydro-6a,9-methanocyclohepta[a]naphthalene-4-carboxylate] came in with a melting point of 63 to 67 °C. Besides, in series [1], the Papp at 4 h, 500 µM was 0.48 ± 0.05 ×10⁻⁶ cm/s and the “PAMPA-GI MR (membrane retention)” value is reported as 22.4 ± 2.0%. For the same compound, in the series with SiHa cells, the inhibition at 10 µM came out at 93.66 ± 0.85% and the inhibition at 30 µM is 94.59 ± 0.49%. In the series with HeLa cells, the inhibition at 10 µM turned out to be 95.4 ± 1.08% and the inhibition at 30 µM is 95.8 ± 1.11%. Moreover, the solubility (kinetic) at 2 h in [2] amounted to 145 ± 14.1 µM (≈ 73.2 µg/mL). Further, in the series on MCF-7 cells, the inhibition at 10 µM was 96.23 ± 0.59% and the inhibition at 30 µM is 96.27 ± 0.65%. Further, in the series on NIH/3T3 fibroblasts, the inhibition at 10 µM is 44.4 ± 0.7% and the inhibition at 30 µM is 90.5 ± 1.16%. For the same compound, in the series on A2780 cells, the inhibition at 10 µM amounted to 97.06 ± 0.3% and the inhibition at 30 µM is 97.51 ± 0.22%. In the series on MDA-MB-231 cells, the inhibition at 10 µM was found to be 93.66 ± 0.59% and the inhibition at 30 µM was found to be 94.31 ± 0.51%.

The compound `COC(=O)[C@]1(C)CCC[C@@]2(C)C3CC[C@]4(O)C[C@@]3(CCC21)[C@@H](O)[C@]4(O)CNCc1cccc2ccccc12` (stereo partly drawn) [Compound 14, (4R,6aR,7R,8R,9S,11bS)-Methyl 7,8,9-Trihydroxy-4,11b-dimethyl-8-(((naphthalen-1-ylmethyl)amino)methyl)tetradecahydro-6a,9-methanocyclohepta[a]naphthalene-4-carboxylate] showed a melting point of 138 to 140 °C. Also, in [1], the “PAMPA-GI MR (membrane retention)” value turned out to be 94.2 ± 2.0%. Besides, in the series on SiHa cells, the inhibition at 10 µM is 97.24 ± 0.39% and the inhibition at 30 µM stood at 96.7 ± 0.65%. In the series with HeLa cells, the inhibition at 10 µM was 97.2 ± 0.92% and the inhibition at 30 µM is 98.14 ± 0.36%. Also, in series [2], the kinetic solubility at 2 h was 18.9 ± 2.4 µM (≈ 9.86 µg/mL). In the series on MCF-7 cells, the inhibition at 10 µM was found to be 97.57 ± 0.19% and the inhibition at 30 µM was determined as 97.66 ± 0.28%. In addition, in the series with NIH/3T3 fibroblasts, the inhibition at 10 µM was found to be 93.25 ± 0.51% and the inhibition at 30 µM was found to be 97.34 ± 0.26%. Besides, in the series with A2780 cells, the inhibition at 10 µM came to 92.2 ± 3.33% and the inhibition at 30 µM came to 96.81 ± 0.23%. Besides, in the series with MDA-MB-231 cells, the inhibition at 10 µM worked out at 97.41 ± 0.21% and the inhibition at 30 µM was 96.46 ± 0.34%.
